The results in this text go back to patent US12435060B2, “Acylamino bridged heterocyclic compound, and composition and application thereof” (BEIJING SCITECH-MQ PHARMACEUTICALS LIMITED, priority 2019, dated 2025).

Structures are written as SMILES. Some results are limits rather than exact numbers.

One assay has as its target T1, RIPK1 (Homo sapiens, UniProt Q13546).
T1 construct: the phosphorylation of intracellular RIPK1 during the induction of programmed necrosis of HT29 cells; endogenous in cells; host or cells: HT29 cells
T1 sequence (Q13546 1-671): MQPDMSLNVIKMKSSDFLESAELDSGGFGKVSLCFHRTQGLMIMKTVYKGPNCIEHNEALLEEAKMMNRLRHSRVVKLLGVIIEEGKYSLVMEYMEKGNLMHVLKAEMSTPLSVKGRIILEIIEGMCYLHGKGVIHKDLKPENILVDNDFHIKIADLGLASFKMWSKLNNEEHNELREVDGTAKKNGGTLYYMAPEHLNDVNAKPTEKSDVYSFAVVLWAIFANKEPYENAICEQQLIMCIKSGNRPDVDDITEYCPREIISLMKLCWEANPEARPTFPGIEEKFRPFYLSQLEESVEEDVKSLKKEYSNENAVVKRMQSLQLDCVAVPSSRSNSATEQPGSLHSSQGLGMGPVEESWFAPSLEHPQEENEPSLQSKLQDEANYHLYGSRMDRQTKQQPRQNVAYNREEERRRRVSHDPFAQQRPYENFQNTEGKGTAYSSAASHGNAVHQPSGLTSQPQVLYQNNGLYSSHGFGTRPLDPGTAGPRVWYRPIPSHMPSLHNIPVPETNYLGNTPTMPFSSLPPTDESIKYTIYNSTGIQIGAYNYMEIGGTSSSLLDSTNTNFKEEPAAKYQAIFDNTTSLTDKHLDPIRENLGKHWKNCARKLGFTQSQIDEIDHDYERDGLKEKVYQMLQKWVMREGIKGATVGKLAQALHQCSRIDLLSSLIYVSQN
Put plainly: Western blot determination of inhibition of RIPK1 phosphorylation in HT29 cells. It is filed as cell-based. Particulars: Z-VAD-FMK 20 μM, TNF-α 20 ng/mL, AT-406 100 nM, 7 hours, FIG. 1 and FIG. 2. The protocol: Assay Example 1. Western Blot Determination of Inhibition of Compounds on RIPK1 Phosphorylation in HT29 Cells
Western blot was used to determine the effect of the test compounds on the phosphorylation of intracellular RIPK1 during the induction of programmed necrosis of HT29 cells, verifying the effect of compounds on RIPK1 phosphorylation, and initially estimating the IC50 range of compounds for RIPK1 phosphorylation.
II. Experiment Procedure • 1. […] 40-50 ug of protein sample to be determined or pre-stained two-color protein molecular weight standard were added to each well. • 4. […]

Another assay deals with HT29 cells. Put plainly: Inhibition of cell necrosis (CCK8 method), induced programmed necrosis of HT29 cells. It is filed as cell-based. Particulars: Homo sapiens, HT-29; rescue from necrosis induced by TNF-α 20 ng/mL, AT-406 1 μM, Z-VAD-FMK 20 μM; 16-20 hours; CCK-8, OD 450 nm. The method, boiled down: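 HT29 cells in McCOY's 5A with 10% FBS were pre-treated for 30 min with compound (9 fourfold steps, 25000 to 0.38 nM final, 0.25% DMSO). Necrosis was then induced with TNF-α 20 ng/mL, AT-406 1 μM and Z-VAD-FMK 20 μM for 16-20 h. Viability was read by CCK-8 OD450, normalized between uninduced and induced wells, and IC50 was curve-fitted.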

Turning to `Cc1ccccc1-c1ccnc(NC(=O)c2nnc(Cc3ccccc3)[nH]2)c1` [Example 2, 5-benzyl-N-(4-(o-methylphenyl)pyridin-2-yl)-4H-1,2,4-triazole-3-carboxamide], the “inhibition of RIPK1 phosphorylation” value on RIPK1 is given as “directly inhibit the phosphorylation activation of RIPK1”. Moreover, in the assay with HT29 cells, the IC50 was in the range of 100 to 1000 nM. Take `Cc1ccc(OCCCC(C)(C)O)cc1-c1ccnc(NC(=O)c2nnc(Cc3cccc(Cl)c3F)[nH]2)c1` [Example 491, 5-(3-chloro-2-fluorobenzyl)-N-(4-(5-((4-hydroxy-4-methylpentyl)oxy)-2-methylphenyl)pyridin-2-yl)-4H-1,2,4-triazole-3-carboxamide]: in the assay with HT29 cells, the IC50 is 100 to 1000 nM. With `Cc1ccc(OCCCC(C)(C)O)cc1-c1cc(NC(=O)c2nnc(Cc3ccccc3F)[nH]2)ncc1F` [Example 492, N-(5-fluoro-4-(5-((4-hydroxy-4-methylpentyl)oxy)-2-methylphenyl)pyridin-2-yl)-5-(2-fluorobenzyl)-4H-1,2,4-triazole-3-carboxamide], the IC50 in the assay on HT29 cells was at most 100 nM. Still for that read-out and setting: the same measure for `Cc1ccc(OCCCC(C)(C)O)cc1-c1cc(NC(=O)c2nnc(CC3CCCCC3)[nH]2)ncc1F` [Example 493, 5-(cyclohexylmethyl)-N-(5-fluoro-4-(5-((4-hydroxy-4-methylpentyl)oxy)-2-methylphenyl)pyridin-2-yl)-4H-1,2,4-triazole-3-carboxamide]: at most 100 nM; for `Cc1ccc(OCCCCC(C)(C)O)cc1-c1cc(NC(=O)c2nnc(Cc3ccccc3F)[nH]2)ncc1F` [Example 494, N-(5-fluoro-4-(5-((5-hydroxyl-5-methylhexyl)oxy)-2-methylphenyl)pyridin-2-yl)-5-(2-fluorobenzyl)-4H-1,2,4-triazole-3-carboxamide]: at most 100 nM; for `Cc1ccc(OCCCCC(C)(C)O)cc1-c1cc(NC(=O)c2nnc(CC3CCCCC3)[nH]2)ncc1F` [Example 495, 5-(cyclohexylmethyl)-N-(5-fluoro-4-(5-((5-hydroxyl-5-methylhexyl)oxy)-2-methylphenyl)pyridin-2-yl)-4H-1,2,4-triazole-3-carboxamide]: at most 100 nM.

`Cc1ccc(OCC2CCOCC2)cc1-c1cc(NC(=O)c2nnc(Cc3ccccc3F)[nH]2)ncc1F` [Example 496, N-(5-fluoro-4-(2-methyl-5-((tetrahydro-2H-pyran-4-yl)methoxy)phenyl)pyridin-2-yl)-5-(2-fluorobenzyl)-4H-1,2,4-triazole-3-carboxamide] gave an IC50 in the assay on HT29 cells of at most 100 nM. Still for that read-out and setting: the same measure for `Cc1ccc(OCC2CCOCC2)cc1-c1cc(NC(=O)c2nnc(CC3CCCCC3)[nH]2)ncc1F` [Example 497, 5-(cyclohexylmethyl)-N-(5-fluoro-4-(2-methyl-5-((tetrahydro-2H-pyran-4-yl)methoxy)phenyl)pyridin-2-yl)-4H-1,2,4-triazole-3-carboxamide]: at most 100 nM. Consider `Cc1ccc(OCCC2CCOCC2)cc1-c1cc(NC(=O)c2nnc(Cc3ccccc3F)[nH]2)ncc1F` [Example 498, N-(5-fluoro-4-(2-methyl-5-(2-(tetrahydro-2H-pyran-4-yl)ethoxy)phenyl)pyridin-2-yl)-5-(2-fluorobenzyl)-4H-1,2,4-triazole-3-carboxamide], for which the IC50 with HT29 cells is at most 100 nM. Still for that read-out and setting: the same measure for `Cc1ccc(OCCC2CCOCC2)cc1-c1cc(NC(=O)c2nnc(CC3CCCCC3)[nH]2)ncc1F` [Example 499, N-(5-fluoro-4-(2-methyl-5-(2-(tetrahydro-2H-pyran-4-yl)ethoxy)phenyl)pyridin-2-yl)-5-(cyclohexylmethyl)-4H-1,2,4-triazole-3-carboxamide]: at most 100 nM; for `CC(C)(O)CCCCOc1ccc(F)c(-c2ccnc(NC(=O)c3nnc(Cc4ccccc4F)[nH]3)c2)c1` [Example 500, N-(4-(2-fluoro-5-((5-hydroxyl-5-methylhexyl)oxy)phenyl)pyridin-2-yl)-5-(2-fluorobenzyl)-4H-1,2,4-triazole-3-carboxamide]: 100 to 1000 nM.

Consider `CC(C)(O)CCCOc1ccc(Cl)c(-c2ccnc(NC(=O)c3nnc(Cc4ccc(F)c(Cl)c4F)[nH]3)c2)c1` [Example 501, 5-(3-chloro-2,4-difluorobenzyl)-N-(4-(2-chloro-5-((4-hydroxy-4-methylpentyl)oxy)phenyl)pyridin-2-yl)-4H-1,2,4-triazole-3-carboxamide], for which the IC50 in the assay on HT29 cells was in the range of 100 to 1000 nM. Still for that read-out and setting: the same measure for `CC(C)(O)CCCCOc1ccc(Cl)c(-c2cc(NC(=O)c3nnc(CC4CCCCC4)[nH]3)ncc2F)c1` [Example 502, N-(4-(2-chloro-5-((5-hydroxyl-5-methylhexyl)oxy)phenyl)-5-fluoropyridin-2-yl)-5-(cyclohexylmethyl)-4H-1,2,4-triazole-3-carboxamide]: at most 100 nM; for `CC(C)(O)CCCOc1ccc(Cl)c(-c2ccnc(NC(=O)c3nnc(Cc4cc(C5CC5)ccc4F)[nH]3)c2)c1` [Example 503, N-(4-(2-chloro-5-((4-hydroxy-4-methylpentyl)oxy)phenyl)pyridin-2-yl)-5-(5-cyclopropyl-2-fluorobenzyl)-4H-1,2,4-triazole-3-carboxamide]: 1000 to 10000 nM. The same measure, in the same setting: the same measure for `CC(C)(O)CCCOc1ccc(Cl)c(-c2ccnc(NC(=O)c3nnc(Cc4cc(-c5ccccc5)ccc4F)[nH]3)c2)c1` [Example 504, N-(4-(2-chloro-5-((4-hydroxy-4-methylpentyl)oxy)phenyl)pyridin-2-yl)-5-((4-fluoro-[1,1′-biphenyl]-3-yl)methyl)-4H-1,2,4-triazole-3-carboxamide]: 100 to 1000 nM.
